From ChEMBL document CHEMBL4732083, “Synthesis and anti-inflammatory activity of saponin derivatives of δ-oleanolic acid” (Eur J Med Chem, 2021)
Activity calls are given as the source filed them. No cut-off for these calls is given here.

Key:
[1] = AUC (0 to t) in BALB/c mouse at 10 mg/kg, po by LC/MS-MS analysis; format: ADME, organism-based; design: dose 10 mg/kg; conditions: in vivo
[2] = Metabolic stability in mouse liver microsomes assessed as intrinsic clearance in presence of NADPH by LC-MS analysis; format: ADME, Microsome; conditions: read-out: CLH
[3] = Cmax in BALB/c mouse at 2 mg/kg, iv by LC/MS-MS analysis; format: ADME, organism-based; design: route intravenous, dose 2 mg/kg; conditions: in vivo
[4] = Half life in BALB/c mouse at 2 mg/kg, iv by LC/MS-MS analysis; format: ADME, organism-based; conditions: in vivo
[5] = Metabolic stability in human liver microsomes assessed as half life in presence of NADPH by LC-MS analysis; format: ADME, Microsome
[6] = Cmax in BALB/c mouse at 10 mg/kg, po by LC/MS-MS analysis; format: ADME, organism-based; design: route oral, dose 10 mg/kg; conditions: in vivo
[7] = Bioavailability in BALB/c mouse at 10 mg/kg, po by LC/MS-MS analysis; format: ADME, organism-based; conditions: in vivo
[8] = AUC (0 to t) in BALB/c mouse at 2 mg/kg, iv by LC/MS-MS analysis; format: ADME, organism-based; design: dose 2 mg/kg; conditions: in vivo
[9] = AUC (0 to infinity) in BALB/c mouse at 10 mg/kg, po by LC/MS-MS analysis; format: ADME, organism-based; design: route oral, time infinity, dose 10 mg/kg; conditions: in vivo
[10] = AUC (0 to infinity) in BALB/c mouse at 2 mg/kg, iv by LC/MS-MS analysis; format: ADME, organism-based; design: route intravenous, time infinity, dose 2 mg/kg; conditions: in vivo
[11] = Metabolic stability in mouse liver microsomes assessed as half life in presence of NADPH by LC-MS analysis; format: ADME, Microsome
[12] = Half life in BALB/c mouse at 10 mg/kg, po by LC/MS-MS analysis; format: ADME, organism-based; conditions: in vivo
[13] = Tmax in BALB/c mouse at 2 mg/kg, iv by LC/MS-MS analysis; format: ADME, organism-based; conditions: in vivo
[14] = Tmax in BALB/c mouse at 10 mg/kg, po by LC/MS-MS analysis; format: ADME, organism-based; conditions: in vivo
[15] = Metabolic stability in human liver microsomes assessed as intrinsic clearance in presence of NADPH by LC-MS analysis; format: ADME, Microsome; conditions: read-out: CLH
[16] = target: AMP-activated protein kinase, AMPK (Homo sapiens) (UniProt P54646+O43741+P54619+Q9UGJ0+Q9Y478+Q13131+Q9UGI9); experiment: Activation of AMPK in human Huh-7 cells assessed as increase in AMPK phosphorylation at Thr172 residue at 10 uM measured after 12 hrs by Western blot analysis; format: cell-based; conditions: filed as activator
THP-1 [17] = experiment: Antiinflammatory activity in human THP-1 cells assessed as reduction in LPS-induced TNF alpha secretion at 10 uM incubated for 12 hrs measured by ELISA; format: functional, cell-based
THP-1 [18] = experiment: Antiinflammatory activity in human THP-1 cells assessed as reduction in LPS-induced IL6 secretion at 10 uM incubated for 12 hrs measured by ELISA; format: functional, cell-based

Which results are given for `CC1(C)CC[C@]2(C(=O)O)CC[C@]3(C)C(=C2C1)CC[C@@H]1[C@@]2(C)CC[C@H](O[C@@H]4OC[C@H](O)[C@H](O)[C@H]4O[C@@H]4OC[C@@H](O)[C@H](O)[C@H]4O)C(C)(C)[C@@H]2CC[C@]13C`?
AUC(0-t) [1]: 145 ng·h/mL; CLint scaled [2]: 2.34 mL/min/kg; Cmax [3]: 8820 ng/mL; half-life [4]: 2.25 h; half-life [5]: > 2 h; Cmax [6]: 54.2 ng/mL; bioavailability [7]: 1.13%; AUC(0-t) [8]: 2570 ng·h/mL; AUC(0-inf) [9]: 151 ng·h/mL; AUC(0-inf) [10]: 2590 ng·h/mL; half-life [11]: > 2 h; half-life [12]: 1.26 h; Tmax [13]: 4.8 min; Tmax [14]: 0.75 h; CLint scaled [15]: 3.25 mL/min/kg

Which Activity [16] does the source give for `C[C@H]1[C@H](C)CC[C@]2(C(=O)O[C@@H]3O[C@H](CO[C@@H]4O[C@H](CO)[C@@H](O[C@@H]5O[C@@H](C)[C@H](O)[C@@H](O)[C@H]5O)[C@H](O)[C@H]4O)[C@@H](O)[C@H](O)[C@H]3O)CC[C@]3(C)C(=CC[C@@H]4[C@@]5(C)C[C@@H](O)[C@H](O)[C@@](C)(CO)[C@@H]5CC[C@]43C)[C@H]12` here?
Its Activity is “Active”.

For `C[C@H]1[C@H](C)CC[C@]2(C(=O)O)CC[C@]3(C)C(=CC[C@@H]4[C@@]5(C)C[C@@H](O)[C@H](O)C(C)(C)[C@@H]5CC[C@]43C)[C@H]12`, which Activity [16] is on record?
The Activity was “Active”.

For `C[C@H]1[C@H](C)CC[C@]2(C(=O)O)CC[C@]3(C)C(=CC[C@@H]4[C@@]5(C)C[C@@H](O)[C@H](O)[C@@](C)(CO)[C@@H]5CC[C@]43C)[C@H]12`, which Activity [16] is on record?
Its Activity is “Active”.

For `C=C(C)[C@@H]1CC[C@]2(C(=O)O)CC[C@]3(C)[C@H](CC[C@@H]4[C@@]5(C)CC[C@H](O)C(C)(C)[C@@H]5CC[C@]43C)[C@@H]12`, which Activity [16] is on record?
Its Activity is “Active”.

With `CC1(C)CC[C@]2(C(=O)O)CC[C@]3(C)C(=C2C1)CC[C@@H]1[C@@]2(C)CC[C@H](O[C@@H]4OC[C@H](O)[C@H](O)[C@H]4O[C@@H]4O[C@H](CO)[C@@H](O)[C@H](O)[C@H]4O)C(C)(C)[C@@H]2CC[C@]13C` as the compound, how does the Activity (THP-1 [17]) read?
The Activity was “Active”.

What about the Activity (THP-1 [18]) of the same compound?
The Activity was “Active”.

For `CC1(C)CC[C@]2(C(=O)O[C@@H]3O[C@H](CO[C@@H]4O[C@H](CO)[C@@H](O)[C@H](O)[C@H]4O)[C@@H](O)[C@H](O)[C@H]3O)CC[C@]3(C)C(=CC[C@@H]4[C@@]5(C)CC[C@H](O[C@@H]6OC[C@H](O)[C@H](O)[C@H]6O)[C@@](C)(CO)[C@@H]5CC[C@]43C)[C@@H]2C1`, which Activity [16] is on record?
The Activity was “Active”.

For `CC1(C)CC[C@]2(C(=O)O)CC[C@]3(C)C(=CC[C@@H]4[C@@]5(C)C[C@@H](O)[C@H](O)C(C)(C)[C@@H]5CC[C@]43C)[C@@H]2C1`, which Activity [16] is on record?
The Activity was “Active”.

For `CC1(C)CC[C@]2(C(=O)O)CC[C@]3(C)C(=CC[C@@H]4[C@@]5(C)CC[C@H](O[C@@H]6O[C@H](C(=O)O)[C@@H](O)[C@H](O)[C@H]6O)C(C)(C)[C@@H]5CC[C@]43C)[C@@H]2C1`, which Activity [16] is on record?
Its Activity is “Active”.

Which Activity [16] does the source give for `C[C@H]1[C@H](C)CC[C@]2(C(=O)O[C@@H]3O[C@H](CO[C@@H]4O[C@H](CO)[C@@H](O[C@@H]5O[C@@H](C)[C@H](O)[C@@H](O)[C@H]5O)[C@H](O)[C@H]4O)[C@@H](O)[C@H](O)[C@H]3O)CC[C@]3(C)C(=CC[C@@H]4[C@@]5(C)C[C@@H](O)[C@H](O)[C@@](C)(CO)[C@@H]5[C@H](O)C[C@]43C)[C@H]12` here?
Its Activity is “Active”.

With `CC1(C)CC[C@]2(C(=O)O)CC[C@]3(C)C(=CC[C@@H]4[C@@]5(C)CC[C@H](O)C(C)(C)[C@@H]5CC[C@]43C)[C@@H]2C1` as the compound, how does the Activity [16] read?
Its Activity is “Active”.

For `CC1(C)[C@@H](O)CC[C@]2(C)[C@H]3C(=O)C=C4[C@@H]5C[C@@](C)(C(=O)O)CC[C@]5(C)CC[C@@]4(C)[C@]3(C)CC[C@@H]12`, which Activity [16] is on record?
The Activity was “Active”.
